From patent US20150133297A1, “NEW ANTIFUNGAL COMPOSITIONS” (DSM IP ASSETS B.V., priority 2012, published 2015)
Values joined by “and” are separate entries in the source; they are usually repeats but may differ in a detail not shown here. Equal values may be shown once.

What was measured:
Botrytis cinerea = experiment: Treatment of strawberries (Example 5): wounded, inoculated, dipped in antifungal composition; format: in vivo; conditions: 500 ppm natamycin, 600 ppm fenpropidin or both; for Observed antifungal activity O (%): strawberries, 20° C.
Method: Twelve fresh, organic strawberries were used per treatment. Each strawberry was wounded with a 0.5 mm long cut and each wound was inoculated with 10 μl of a Botrytis cinerea suspension containing 1×10^5 of spores/ml. […] A composition without natamycin or fenpropidin was used as control. […] The treated strawberries were incubated in a closed box in the dark at 20° C. for 9 days. During incubation, mould growth on the strawberries was assessed in a twofold manner: […] The expected antifungal activity (E in %) of the combined antifungal composition comprising both active ingredients was calculated according to the Colby equation (Colby, 1967): […] wherein X and Y are the observed antifungal activities (in %) of the individual active ingredients X and Y, respectively.

Penicillium italicum = experiment: Treatment of oranges (Examples 6-9): wounded, inoculated, wound treated with antifungal composition; format: in vivo; conditions: for Observed antifungal activity O (%): oranges, 20° C.
Method: During incubation, mould growth on the strawberries was assessed in a twofold manner: (i) the number of moulded strawberries per total of 12 strawberries was counted; and (ii) the antifungal activity (in %) of the individual and combined active ingredients was determined by calculating the reduction in mould growth observed on the strawberries treated with the antifungal composition in comparison to the mould growth on the strawberries treated with the control composition. The expected antifungal activity (E in %) of the combined antifungal composition comprising both active ingredients was calculated according to the Colby equation (Colby, 1967): […]
Eight fresh, organic oranges were used per treatment. Each orange was soaked in a 180 ppm hypochlorite solution for 10 minutes, then rinsed thoroughly with fresh tap water and dried. The peel of each disinfected orange was wounded once using a cork borer according to the method described by de Lapeyre de Bellaire and Dubois (1987). Subsequently, each wound was inoculated with 10 μl of a Penicillium italicum suspension containing 5×10^5 of spores/ml. After incubation for 3 hours at 20° C., each wound and the orange peel area of 1 cm around the wound was treated with in total 150 μl of a freshly prepared aqueous antifungal composition comprising either 500 ppm natamycin (DSM Food Specialties, Delft, The Netherlands), 500 ppm fenpropidin or both. Each antifungal composition also comprised 3.2% (w/w) beeswax, 0.8% (w/w) glycerol, 0.7% (w/w) polyoxyethylene sorbitan monostearate (Tween 60), 0.1% (w/w) polyoxyethylene sorbitan monooleate (Tween 80), 0.05% (w/w) methylhydroxyethyl-cellulose (MHEC), 0.03% (w/w) anti-foaming agent, 0.02% (w/w) xanthan gum, 0.02% (w/w) citric acid, 0.01% (w/w) lactic acid and 0.01% potassium sorbate. A composition without natamycin or fenpropidin was used as control. […] The treated oranges were incubated in a closed box in the dark at 20° C. and assessed on mould growth during a 28-day incubation period. The antifungal activity (in %) of the individual and combined active ingredients was determined by calculating the reduction in mould growth observed on the oranges treated with the antifungal composition in comparison to the mould growth on the oranges treated with the control composition according to the Colby method (Colby, 1967) as described in Example 5.
(§1) The experiment was conducted as described in Example 6, except for the fact that each wounded and inoculated orange was treated with 150 μl of a freshly prepared aqueous antifungal composition comprising either 250 ppm natamycin (DSM Food Specialties, Delft, The Netherlands), 250 ppm fenpropidin or both. During the 26-day incubation period, the treated oranges were assessed on mould growth according to the two methods described in Example 5.
as §1, with “either 500” for “either 250”, “Netherlands), 400” for “Netherlands), 250”, “ppm spiroxamine” for “ppm fenpropidin”
as §1, with “Netherlands), 200” for “Netherlands), 250”, “ppm spiroxamine” for “ppm fenpropidin”

CC(Cc1ccc(C(C)(C)C)cc1)CN1CCCCC1 (stereo not drawn) [Fenpropidin, fenpropidin]
Number of moulded strawberries/total number of 12 strawberries (Botrytis cinerea; Day 5, 20° C.): 12 and 12/12
Number of moulded strawberries/total number of 12 strawberries (Botrytis cinerea; Day 6, 20° C.): 12 and 12/12
Observed antifungal activity O (%) (Botrytis cinerea; day 4): 0%
Observed antifungal activity O (%) (Botrytis cinerea; day 5): 0%
Observed antifungal activity O (%) (Botrytis cinerea; day 6): 0%
Observed antifungal activity O (%) (Botrytis cinerea; day 7): 0%
Observed antifungal activity O (%) (Botrytis cinerea; day 8): 0%
Observed antifungal activity O (%) (Botrytis cinerea; day 9): 0%
Number of moulded oranges/total number of 8 oranges (Penicillium italicum; Day 18, 20° C., 250 ppm natamycin, 250 ppm fenpropidin or both): 6/8
Number of moulded oranges/total number of 8 oranges (Penicillium italicum; Day 19, 20° C., 250 ppm natamycin, 250 ppm fenpropidin or both): 6/8
Number of moulded oranges/total number of 8 oranges (Penicillium italicum; Day 20, 20° C., 250 ppm natamycin, 250 ppm fenpropidin or both): 7/8
Number of moulded oranges/total number of 8 oranges (Penicillium italicum; Day 21-22, 20° C., 250 ppm natamycin, 250 ppm fenpropidin or both): 7 and 7/8
Number of moulded oranges/total number of 8 oranges (Penicillium italicum; Day 23-26, 20° C., 250 ppm natamycin, 250 ppm fenpropidin or both): 7 and 7/8
Observed antifungal activity O (%) (Penicillium italicum; day 18, 250 ppm natamycin, 250 ppm fenpropidin or both): 59%
Observed antifungal activity O (%) (Penicillium italicum; day 19, 250 ppm natamycin, 250 ppm fenpropidin or both): 50%
Observed antifungal activity O (%) (Penicillium italicum; day 20, 250 ppm natamycin, 250 ppm fenpropidin or both): 43%
Observed antifungal activity O (%) (Penicillium italicum; day 21, 250 ppm natamycin, 250 ppm fenpropidin or both): 38%
Observed antifungal activity O (%) (Penicillium italicum; day 22, 250 ppm natamycin, 250 ppm fenpropidin or both): 30%
Observed antifungal activity O (%) (Penicillium italicum; day 22, 500 ppm natamycin, 500 ppm fenpropidin or both): 94%
Observed antifungal activity O (%) (Penicillium italicum; day 23, 250 ppm natamycin, 250 ppm fenpropidin or both): 16%
Observed antifungal activity O (%) (Penicillium italicum; day 23, 500 ppm natamycin, 500 ppm fenpropidin or both): 89%
Observed antifungal activity O (%) (Penicillium italicum; day 25, 250 ppm natamycin, 250 ppm fenpropidin or both): 4%
Observed antifungal activity O (%) (Penicillium italicum; day 25, 500 ppm natamycin, 500 ppm fenpropidin or both): 84%
Observed antifungal activity O (%) (Penicillium italicum; day 26, 250 ppm natamycin, 250 ppm fenpropidin or both): 0%
Observed antifungal activity O (%) (Penicillium italicum; day 26, 500 ppm natamycin, 500 ppm fenpropidin or both): 81%
Observed antifungal activity O (%) (Penicillium italicum; day 27, 500 ppm natamycin, 500 ppm fenpropidin or both): 80%
Observed antifungal activity O (%) (Penicillium italicum; day 28, 500 ppm natamycin, 500 ppm fenpropidin or both): 75%
